Earlier results on one molecule are cited in US6949518B1, “Methods for treating macular degeneration with topiramate” (priority 2003, dated 2005).

Data set [1] relates to patients with type 2 diabetes.
For data set [2] the following is noted: elimination predominantly unchanged via the renal route.

Take `CC1(C)O[C@@H]2[C@@H](CO[C@@]3(COS(N)(=O)=O)OC(C)(C)O[C@@H]23)O1` [topiramate, 2,3:4,5-Di-O-isopropylidene-β-D-fructopyranose sulfamate]: in data set [1] (by the end of trial), the dendrite length result is listed as “increased” and the peroneal nerve amplitude entry is listed as “increased”. Further, the total neuropathy scores in data set [1] (end of trial, decreased from baseline 14, 11 patients, 25 mg/day titrated over 42 days to maximum tolerated dose or 100 mg/day, then 84 more days) is reported as 11.8. Moreover, the carbonic anhydrase inhibition entry with carbonic anhydrase is recorded as “weak carbonic anhydrase inhibitor”. Also, the “plasma t½” value in data set [2] is 20 to 30 h. Further, the “solubility in acetone, chloroform, dimethylsulfoxide, and ethanol” value (organic solvents) is listed as “freely soluble”. In addition, the “pH of saturated solution” value (saturated solution) was 6.3.
